Active and inactive are the calls of the source. The rule behind the calls is not given here.
Experiments:
MCF7 = assay: Cytotoxicity against human MCF7 cells after 72 hrs by MTT assay; assay type: functional, cell-based; details: MCF7, 72 h
[1] = Cytotoxicity against human H460 cells after 72 hrs by MTT assay; assay type: functional, cell-based; details: NCI-H460, 72 h
HCT-116 [2] = assay: Cytotoxicity against human HCT116 cells after 72 hrs by MTT assay; assay type: functional, cell-based; details: HCT-116, 72 h
HCT-116 [3] = assay: Cell cycle arrest in human HCT116 cells assessed as accumulation at S phase at 0.1 uM after 48 hrs by propidium iodide staining-based FACS analysis (reference value: 12+/- 5 %); assay type: functional
HCT-116 [4] = assay: Cell cycle arrest in human HCT116 cells assessed as accumulation at S phase at 1 uM after 48 hrs by propidium iodide staining-based FACS analysis (reference value: 12+/- 5 %); assay type: functional
Calf thymus DNA [5] = assay: Binding affinity to calf thymus DNA assessed as DNA intercalation at 1 to 50 uM by circular dichroism analysis; assay type: nucleic-acid assay; details: Bos taurus
HCT-116 [6] = assay: Cell cycle arrest in human HCT116 cells assessed as accumulation at subG1 phase after 24 hrs by propidium iodide staining-based FACS analysis; assay type: functional
HCT-116 [7] = assay: Cell cycle arrest in human HCT116 cells assessed as accumulation at G2/M phase at 0.1 uM after 24 hrs by propidium iodide staining-based FACS analysis (reference value: 29 +/- 8 %); assay type: functional
HCT-116 [8] = assay: Cell cycle arrest in human HCT116 cells assessed as accumulation at subG1 phase at 5 uM after 24 hrs by propidium iodide staining-based FACS analysis; assay type: functional
HCT-116 [9] = assay: Cell cycle arrest in human HCT116 cells assessed as accumulation at G2/M phase at 1 uM after 48 hrs by propidium iodide staining-based FACS analysis (reference value: 28 +/- 3 %); assay type: functional
Homo sapiens = organism: Homo sapiens; assay: Inhibition of human DNA topoisomerase 2 assessed as inhibition of DNA cleavage
Calf thymus DNA [10] = assay: Binding affinity to calf thymus DNA assessed as hypochromic shift at 20 uM by UV/visible spectrophotometry; assay type: nucleic-acid assay; details: Bos taurus
HCT-116 [11] = assay: Cell cycle arrest in human HCT116 cells assessed as accumulation at S phase at 1 uM after 24 hrs by propidium iodide staining-based FACS analysis (reference value: 48 +/- 6 %); assay type: functional
HCT-116 [12] = assay: Cell cycle arrest in human HCT116 cells assessed as accumulation at G2/M phase at 0.1 uM after 48 hrs by propidium iodide staining-based FACS analysis (reference value: 28 +/- 3 %); assay type: functional
HCT-116 [13] = assay: Cell cycle arrest in human HCT116 cells assessed as accumulation at G2/M phase at 1 uM after 24 hrs by propidium iodide staining-based FACS analysis (reference value: 29 +/- 8 %); assay type: functional
[14] = target: T1, DNA topoisomerase 1 (Homo sapiens) (UniProt P11387); assay: Inhibition of human DNA topoisomerase 1 assessed as inhibition of DNA cleavage
T1 sequence (whole entry): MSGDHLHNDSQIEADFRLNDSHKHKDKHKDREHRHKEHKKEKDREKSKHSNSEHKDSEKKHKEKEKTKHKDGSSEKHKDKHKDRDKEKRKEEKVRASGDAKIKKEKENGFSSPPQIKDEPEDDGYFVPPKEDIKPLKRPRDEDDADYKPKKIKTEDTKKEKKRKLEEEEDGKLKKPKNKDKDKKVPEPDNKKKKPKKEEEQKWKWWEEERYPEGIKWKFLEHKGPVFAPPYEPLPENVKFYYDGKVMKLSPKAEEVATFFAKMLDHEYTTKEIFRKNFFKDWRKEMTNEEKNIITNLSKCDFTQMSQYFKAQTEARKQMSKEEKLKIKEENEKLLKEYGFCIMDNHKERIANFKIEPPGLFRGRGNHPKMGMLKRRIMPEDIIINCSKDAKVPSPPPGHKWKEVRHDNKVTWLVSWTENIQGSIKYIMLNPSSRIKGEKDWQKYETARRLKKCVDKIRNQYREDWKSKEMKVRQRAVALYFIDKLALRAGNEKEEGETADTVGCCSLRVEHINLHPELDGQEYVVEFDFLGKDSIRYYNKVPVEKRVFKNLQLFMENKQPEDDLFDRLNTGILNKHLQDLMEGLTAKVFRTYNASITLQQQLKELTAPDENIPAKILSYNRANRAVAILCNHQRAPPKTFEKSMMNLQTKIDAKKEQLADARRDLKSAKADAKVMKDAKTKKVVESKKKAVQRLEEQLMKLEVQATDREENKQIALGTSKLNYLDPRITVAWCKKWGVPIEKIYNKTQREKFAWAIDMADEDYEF

HCT-116 [15] = assay: Cell cycle arrest in human HCT116 cells assessed as accumulation at subG1 phase at 0.1 uM after 48 hrs by propidium iodide staining-based FACS analysis (reference value: 5 +/- 2 %); assay type: functional
HCT-116 [16] = assay: Cell cycle arrest in human HCT116 cells assessed as accumulation at subG1 phase at 1 uM after 48 hrs by propidium iodide staining-based FACS analysis (reference value: 5 +/- 2 %); assay type: functional
Escherichia coli [17] = assay: Binding affinity to Escherichia coli pUC19 plasmid assessed as induction of topoisomerase1-mediated DNA relaxation at 1 uM incubated for 45 mins prior to topoisomerase1 addition by agarose gel electrophoresis
[18] = Drug uptake in human H460 cell cytoplasm at 10 uM after 2 hrs by fluorescence microscopy; assay type: ADME, cell-based; details: h460, 2 h
HCT-116 [19] = assay: Cell cycle arrest in human HCT116 cells assessed as accumulation at G1 phase at 0.1 uM after 24 hrs by propidium iodide staining-based FACS analysis (reference value: 23 +/- 2 %); assay type: functional
HCT-116 [20] = assay: Cell cycle arrest in human HCT116 cells assessed as accumulation at G1 phase at 1 uM after 24 hrs by propidium iodide staining-based FACS analysis (reference value: 23 +/- 2 %); assay type: functional
Escherichia coli [21] = assay: Binding affinity to Escherichia coli pUC19 plasmid assessed as nicked DNA at 5 to 50 uM by ethidium bromide staining-based agarose gel electrophoresis
Calf thymus DNA [22] = assay: Binding affinity to calf thymus DNA assessed as change in melting temperature at 0.5 drug/DNA ratio by spectrophotometry; assay type: nucleic-acid assay; details: Bos taurus
DNA = assay: Induction of DNA damage in plasmid DNA in E. coli S30 cell-free system assessed as inhibition of EGFP translation at 50 uM after 1 hr by fluorescence assay
Escherichia coli [23] = assay: Induction of topoisomerase1-mediated Escherichia coli pUC19 plasmid relaxation at 20 to 50 uM incubated for 45 mins prior to topoisomerase1 addition by agarose gel electrophoresis
HCT-116 [24] = assay: Cell cycle arrest in human HCT116 cells assessed as accumulation at G1 phase at 1 uM after 48 hrs by propidium iodide staining-based FACS analysis (reference value: 60 +/- 2 %); assay type: functional
HCT-116 [25] = assay: Cell cycle arrest in human HCT116 cells assessed as accumulation at S phase at 0.1 uM after 24 hrs by propidium iodide staining-based FACS analysis (reference value: 48 +/- 6 %); assay type: functional
HCT-116 [26] = assay: Cell cycle arrest in human HCT116 cells assessed as accumulation at subG1 phase at 1 uM after 24 hrs by propidium iodide staining-based FACS analysis (reference value: 2 +/- 0.1 %); assay type: functional
HCT-116 [27] = assay: Cell cycle arrest in human HCT116 cells assessed as accumulation at G1 phase at 0.1 uM after 48 hrs by propidium iodide staining-based FACS analysis (reference value: 60 +/- 2 %); assay type: functional
HCT-116 [28] = assay: Cell cycle arrest in human HCT116 cells assessed as accumulation at subG1 phase at 0.1 uM after 24 hrs by propidium iodide staining-based FACS analysis (reference value: 2 +/- 0.1 %); assay type: functional
Escherichia coli [29] = assay: Binding affinity to Escherichia coli pUC19 plasmid assessed as nicked DNA at 0.1 to 5 uM by ethidium bromide staining-based agarose gel electrophoresis
[30] = Drug uptake in human H460 cell nucleus at 10 uM after 2 hrs by fluorescence microscopy; assay type: ADME, cell-based; details: h460, 2 h
Calf thymus DNA [31] = assay: Binding affinity to calf thymus DNA assessed as bathochromic shift at 20 uM by UV/visible spectrophotometry; assay type: nucleic-acid assay; details: Bos taurus
[32] = Drug uptake in human H460 cell nucleus at 10 uM after 2 hrs by confocal laser scanning microscopy; assay type: ADME, cell-based; details: h460, 2 h
[33] = Drug uptake in human H460 cell endosome at 10 uM after 2 hrs by confocal laser scanning microscopy; assay type: ADME, cell-based; details: h460, 2 h
[34] = Binding affinity to DNA (unknown origin) at 1 to 10 uM after 15 mins by DNA footprinting assay
[35] = Drug uptake in human H460 cell lysosome at 10 uM after 2 hrs by confocal laser scanning microscopy; assay type: ADME, cell-based; details: h460, 2 h
H460 = assay: Binding affinity to chromosomal DNA in human H460 cells at 10 uM after 2 hrs by confocal laser scanning microscopy; assay type: cell-based
Nucleic Acid = assay: DNA intercalating activity at Escherichia coli pUC19 plasmid assessed as effect on global structure of DNA helix at 5 to 50 uM incubated for 45 mins prior to topoisomerase1 addition by agarose gel electrophoresis; assay type: nucleic-acid assay

CNc1ccc2cc(C#N)c3nc4ccccc4n3c2c1
IC50 (MCF7): 200 nM | IC50 [1]: > 10000 nM | IC50 (HCT-116 [2]): > 10000 nM

CC(C)CNc1ccc2cc(C#N)c3nc4ccccc4n3c2c1
Activity (HCT-116 [3]): 21% | Activity (HCT-116 [4]): 0% | Activity (Calf thymus DNA [5]): inactive | Activity (HCT-116 [6]): Dose-dependent effect | Activity (HCT-116 [7]): 42% | Activity (HCT-116 [8]): 40% | Activity (HCT-116 [9]): 90% | Activity (Homo sapiens): inactive | Activity (Calf thymus DNA [10]): Active | Activity (HCT-116 [11]): 8% | Activity (HCT-116 [12]): 17% | IC50 (MCF7): 400 nM | Activity (HCT-116 [13]): 85% | Activity [14]: inactive | Activity (HCT-116 [15]): 6% | Activity (HCT-116 [16]): 30% | IC50 [1]: 300 nM | Activity (Escherichia coli [17]): Active | IC50 (HCT-116 [2]): 600 nM | Drug uptake [18]: Active | Activity (HCT-116 [19]): 14% | Activity (HCT-116 [20]): 7% | Activity (Escherichia coli [21]): Active | ΔTm (Calf thymus DNA [22]): 3.8 °C | inhibition at 50 µM (DNA): 17% | Activity (Escherichia coli [23]): inactive | Activity (HCT-116 [24]): 10% | Activity (HCT-116 [25]): 44% | Activity (HCT-116 [26]): 16% | Activity (HCT-116 [27]): 62% | Activity (HCT-116 [28]): 4%

CN(C)CCCNc1ccc2cc(C#N)c3nc4ccccc4n3c2c1
Activity (HCT-116 [3]): 23% | Activity (HCT-116 [4]): 1% | Activity (Calf thymus DNA [5]): Active | Activity (Escherichia coli [29]): Active | Activity (HCT-116 [6]): Dose-dependent effect | Activity (HCT-116 [7]): 40% | Activity (HCT-116 [8]): 40% | Activity (HCT-116 [9]): 58% | Activity (Homo sapiens): inactive | Activity (Calf thymus DNA [10]): Active | Activity (HCT-116 [11]): 13% | Activity (HCT-116 [12]): 17% | IC50 (MCF7): 400 nM | Drug uptake [30]: Active | Activity (HCT-116 [13]): 65% | Activity [14]: inactive | Activity (HCT-116 [15]): 4% | Activity (HCT-116 [16]): 8% | IC50 [1]: 300 nM | Activity (Calf thymus DNA [31]): Active | IC50 (HCT-116 [2]): 230 nM | Drug uptake [18]: Active | Activity (HCT-116 [19]): 13% | Drug uptake [32]: Active | Activity (HCT-116 [20]): 22% | ΔTm (Calf thymus DNA [22]): 19.2 °C | inhibition at 50 µM (DNA): 72% | Drug uptake [33]: Active | Activity (HCT-116 [24]): 41% | Activity [34]: Active | Activity (HCT-116 [25]): 47% | Activity (HCT-116 [26]): 5% | Drug uptake [35]: Active | Activity (HCT-116 [27]): 60% | Activity (HCT-116 [28]): 6% | Activity (H460): Active

COc1cccc2c1C(=O)c1c(O)c3c(c(O)c1C2=O)C[C@@](O)(C(=O)CO)C[C@@H]3O[C@H]1C[C@H](N)[C@H](O)[C@H](C)O1 [DOXORUBICIN]
inhibition at 50 µM (DNA): 79%

CCCCCN(CCCCC)c1ccc2cc(C#N)c3nc4ccccc4n3c2c1
Activity (Calf thymus DNA [5]): inactive | Activity (Homo sapiens): inactive | IC50 (MCF7): 39000 nM | Activity [14]: inactive | IC50 [1]: > 10000 nM | IC50 (HCT-116 [2]): > 10000 nM | Activity (Escherichia coli [21]): Active | Activity (Nucleic Acid): inactive | ΔTm (Calf thymus DNA [22]): 0 °C

N#Cc1cc2ccc(N3CCCCC3)cc2n2c1nc1ccccc12
Activity (Calf thymus DNA [5]): inactive | Activity (Homo sapiens): inactive | IC50 (MCF7): 2000 nM | Activity [14]: inactive | IC50 [1]: 5000 nM | IC50 (HCT-116 [2]): 8000 nM | Activity (Escherichia coli [21]): Active | Activity (Nucleic Acid): inactive | ΔTm (Calf thymus DNA [22]): 0 °C

COc1cc([C@@H]2c3cc4c(cc3[C@@H](O[C@@H]3O[C@@H]5CO[C@@H](C)O[C@H]5[C@H](O)[C@H]3O)[C@H]3COC(=O)[C@H]23)OCO4)cc(OC)c1O
inhibition (DNA): inactive

Source: ChEMBL document CHEMBL3217548, “Biological activity and DNA binding studies of 2-substituted benzimidazo[1,2-a]quinolines bearing different amino side chains” (Medchemcomm, 2013)
